Measurements as given in ChEMBL document CHEMBL1139902, “Synthesis and SAR of succinamide peptidomimetic inhibitors of cathepsin S” (Bioorg Med Chem Lett, 2007).

What was measured:
Cathepsin K = biological target: T1, Cathepsin K (Homo sapiens, UniProt P43235); assay: Inhibition of cathepsin K
T1 sequence (P43235 whole entry): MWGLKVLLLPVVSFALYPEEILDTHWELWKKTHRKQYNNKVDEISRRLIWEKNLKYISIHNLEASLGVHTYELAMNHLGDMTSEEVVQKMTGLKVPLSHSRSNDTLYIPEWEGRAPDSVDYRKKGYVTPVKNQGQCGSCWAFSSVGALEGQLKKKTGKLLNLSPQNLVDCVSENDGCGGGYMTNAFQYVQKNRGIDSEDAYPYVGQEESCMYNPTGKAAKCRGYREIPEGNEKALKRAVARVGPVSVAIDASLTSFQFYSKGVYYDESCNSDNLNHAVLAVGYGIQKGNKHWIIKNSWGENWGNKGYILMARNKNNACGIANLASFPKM

Procathepsin L = Procathepsin L (Homo sapiens, UniProt P07711); assay: Inhibition of cathepsin L
Cathepsin S = Cathepsin S (Homo sapiens, UniProt P25774)
Description: Inhibition of cathepsin S

[1] = Cmax in Wistar rat at 10 mg/kg. po; type: ADME, organism-based; parameters: dose 10 mg/kg, route oral; settings: in vivo
[2] = AUC in Wistar rat at 10 mg/kg, po; type: ADME, organism-based; parameters: dose 10 mg/kg, route oral; settings: plasma
[3] = Half life in Wistar rat at 10 mg/kg. po; type: ADME, organism-based; parameters: dose 10 mg/kg, route oral; settings: in vivo
[4] = Tmax in Wistar rat at 10 mg/kg. po; type: ADME, organism-based; parameters: dose 10 mg/kg, route oral; settings: in vivo

Procathepsin L, sequence (P07711 whole entry): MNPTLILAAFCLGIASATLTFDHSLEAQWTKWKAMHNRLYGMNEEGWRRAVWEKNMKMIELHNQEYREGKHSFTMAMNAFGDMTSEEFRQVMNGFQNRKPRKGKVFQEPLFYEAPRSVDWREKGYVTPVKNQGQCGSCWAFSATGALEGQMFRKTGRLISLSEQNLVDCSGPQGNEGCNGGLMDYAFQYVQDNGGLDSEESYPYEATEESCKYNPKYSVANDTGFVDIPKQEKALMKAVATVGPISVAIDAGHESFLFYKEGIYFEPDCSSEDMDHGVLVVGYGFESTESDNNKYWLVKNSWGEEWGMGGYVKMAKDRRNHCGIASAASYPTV
Cathepsin S, sequence (P25774 whole entry): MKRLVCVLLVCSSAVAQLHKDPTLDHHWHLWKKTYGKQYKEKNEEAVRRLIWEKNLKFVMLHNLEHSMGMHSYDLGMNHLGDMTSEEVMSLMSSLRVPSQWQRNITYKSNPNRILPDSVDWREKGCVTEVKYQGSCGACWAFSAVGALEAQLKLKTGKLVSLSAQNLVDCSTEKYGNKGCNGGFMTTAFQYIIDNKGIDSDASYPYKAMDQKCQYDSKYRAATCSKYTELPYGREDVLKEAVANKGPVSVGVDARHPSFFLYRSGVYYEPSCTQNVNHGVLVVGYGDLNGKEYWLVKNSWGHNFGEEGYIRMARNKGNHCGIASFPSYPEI

SMILES | Ki (Cathepsin K) | Ki (Procathepsin L) | Ki (Cathepsin S) | Cmax [1] | AUC [2] | half-life [3] | Tmax [4]
C[C@@H](CNc1ccc(OC(F)(F)F)cc1)NC(=O)[C@@H](CC(=O)N1CCOCC1)c1ccc(C(F)(F)F)cc1 | > 100 µM | > 100 µM | – | – | – | – | –
O=C(N[C@@H](CCc1ccccc1)CNc1ccc(OC(F)(F)F)cc1)[C@@H](CC(=O)N1CCOCC1)c1ccccc1 | 0.71 µM | – | 0.037 µM | – | – | – | –
CC(C)[C@@H](CNc1ccc(OC(F)(F)F)cc1)NC(=O)[C@@H](CC(=O)N1CCOCC1)c1ccc(Cl)cc1 | > 100 µM | > 100 µM | – | 720 nM | 2.82 µM·h | 1.82 h | 2 h
CC(C)[C@@H](CNc1ccc(OC(F)(F)F)cc1)NC(=O)[C@H](CCC1CCCC1)CC(=O)N1CCOCC1 | > 26.4 µM | – | 0.011 µM | – | – | – | –
CC[C@@H](CNc1ccc(OC(F)(F)F)cc1)NC(=O)[C@@H](CC(=O)N1CCOCC1)CC1CCCCC1 | 0.907 µM | 0.267 µM | – | – | – | – | –
CC(C)[C@@H](CNc1ccc(OC(F)(F)F)cc1)NC(=O)[C@H](CCCc1ccccc1)CC(=O)N1CCOCC1 | 2.12 µM | – | 0.014 µM | – | – | – | –
O=C(N[C@H](CNc1ccc(OC(F)(F)F)cc1)c1ccccc1)[C@@H](CC(=O)N1CCOCC1)CC1CCCCC1 | > 30 µM | 3.52 µM | 0.062 µM | 815 nM | 2.77 µM·h | 1.22 h | 2 h
CC(C)[C@@H](CNc1ccc(OC(F)(F)F)cc1)NC(=O)[C@H](CCc1ccccc1)CC(=O)N1CCOCC1 | 0.184 µM | 0.372 µM | 0.027 µM | – | – | – | –
O=C(C[C@@H](CC1CCCCC1)C(=O)N1CCOCC1)NCCNc1ccc(F)cc1 | > 100 µM | > 100 µM | 1.72 µM | – | – | – | –
Cc1ccc([C@H](CC(=O)N2CCOCC2)C(=O)N[C@H](CNc2ccc(OC(F)(F)F)cc2)C(C)C)cc1 | > 30 µM | > 100 µM | 0.134 µM | – | – | – | –
CC(C)[C@@H](CNc1ccc(OC(F)(F)F)cc1)NC(=O)[C@@H](CC(=O)N1CCOCC1)CC1CCCCC1 | 0.995 µM | – | 0.011 µM | 241 nM | 0.831 µM·h | 1.06 h | 1.7 h
O=C(N[C@H](CNc1ccc(OC(F)(F)F)cc1)c1ccccc1)[C@@H](CC(=O)N1CCOCC1)c1ccccc1 | 10.5 µM | – | 0.261 µM | – | – | – | –
O=C(C[C@H](CC1CCCCC1)C(=O)N1CCOCC1)NCCNc1ccc(F)cc1 | > 100 µM | > 100 µM | > 100 µM | – | – | – | –
COc1ccc([C@H](CC(=O)N2CCOCC2)C(=O)N[C@H](CNc2ccc(OC(F)(F)F)cc2)C(C)C)cc1 | > 30 µM | > 65 µM | – | 789 nM | 2.04 µM·h | 1.06 h | 1 h
CS(=O)(=O)CC[C@H](CNc1ccc(OC(F)(F)F)cc1)NC(=O)[C@@H](CC(=O)N1CCOCC1)CC1CCCCC1 | 5.41 µM | – | 0.069 µM | – | – | – | –
CC(C)[C@@H](CNc1ccc(OC(F)(F)F)cc1)NC(=O)[C@@H](CC(=O)N1CCOCC1)c1cccc(C(F)(F)F)c1 | > 100 µM | > 30 µM | 18.5 µM | – | – | – | –
C[C@@H](CNc1ccc(OC(F)(F)F)cc1)NC(=O)[C@@H](CC(=O)N1CCOCC1)CC1CCCCC1 | 24.3 µM | 18.9 µM | 0.028 µM | 983 nM | 2.78 µM·h | 0.87 h | 1.5 h
C[C@@H](CN1CCc2cc(F)ccc21)NC(=O)[C@@H](CC(=O)N1CCOCC1)Cc1ccccc1 | > 30 µM | 8.86 µM | > 24 µM | – | – | – | –
C[C@@H](CNc1ccc(OC(F)(F)F)cc1)NC(=O)[C@H](CCC1CCCCC1)CC(=O)N1CCOCC1 | 3.71 µM | > 30 µM | 0.095 µM | – | – | – | –
CC(C)[C@@H](CNc1ccc(OC(F)(F)F)cc1)NC(=O)[C@@H](CC(=O)N1CCOCC1)c1ccccc1 | 11.5 µM | 11.5 µM | 0.025 µM | 647 nM | 1.91 µM·h | 0.92 h | 0.7 h

SMILES | Ki (Cathepsin K) | Ki (Procathepsin L) | Ki (Cathepsin S) | Cmax [1] | AUC [2] | half-life [3] | Tmax [4]
C[C@@H](CNc1ccc(OC(F)(F)F)cc1)NC(=O)[C@@H](CC(=O)N1CCOCC1)CC(C)(C)C | 2.33 µM | > 100 µM | – | – | – | – | –
CC(C)[C@@H](CNc1ccc(OC(F)(F)F)cc1)NC(=O)[C@@H](CC(=O)N1CCOCC1)CC1CCCC1 | 1.14 µM | – | 0.038 µM | – | – | – | –
O=C(NCCNc1ccc(F)cc1)[C@H](CC(=O)N1CCOCC1)CC1CCCCC1 | > 100 µM | > 100 µM | > 100 µM | – | – | – | –
C[C@@H](CNc1ccc(OC(F)(F)F)cc1)NC(=O)[C@H](CCC(C)(C)C)CC(=O)N1CCOCC1 | > 100 µM | > 100 µM | – | – | – | – | –
CCC[C@@H](CNc1ccc(OC(F)(F)F)cc1)NC(=O)[C@@H](CC(=O)N1CCOCC1)CC1CCCC1 | 0.217 µM | 2.68 µM | 0.012 µM | – | – | – | –
CC[C@@H](CNc1ccc(OC(F)(F)F)cc1)NC(=O)[C@H](CCc1ccccc1)CC(=O)N1CCOCC1 | 0.291 µM | 0.588 µM | 0.06 µM | – | – | – | –
O=C(N[C@@H](CCc1ccccc1)CNc1ccc(OC(F)(F)F)cc1)[C@H](CCC1CCCC1)CC(=O)N1CCOCC1 | > 30 µM | 2.31 µM | 0.2 µM | – | – | – | –
O=C(NCCN1CCc2cc(F)ccc21)[C@H](CC1CCCCC1)NC(=O)N1CCOCC1 | – | – | – | 140 nM | 0.312 µM·h | 1.12 h | 0.33 h
O=C(NCCNc1ccc(OC(F)(F)F)cc1)[C@@H](CC(=O)N1CCOCC1)c1ccc(C(F)(F)F)cc1 | > 100 µM | – | – | – | – | – | –
O=C(NCCNc1ccc(OC(F)(F)F)cc1)[C@@H](CC(=O)N1CCOCC1)CC1CCCCC1 | > 100 µM | > 30 µM | 0.194 µM | – | – | – | –
O=C(N[C@H](CNc1ccc(OC(F)(F)F)cc1)C1CC1)[C@@H](CC(=O)N1CCOCC1)c1ccc(C(F)(F)F)cc1 | > 100 µM | > 100 µM | 0.616 µM | – | – | – | –
C[C@@H](CN1CCc2cc(F)ccc21)NC(=O)[C@@H](CC(=O)N1CCOCC1)CC1CCCCC1 | – | – | – | 24 nM | 0.048 µM·h | 1.12 h | 0.42 h
CC(C)[C@@H](CNc1ccc(OC(F)(F)F)cc1)NC(=O)[C@@H](CC(=O)N1CCOCC1)c1ccccc1C(F)(F)F | > 100 µM | > 100 µM | > 100 µM | – | – | – | –
CCC[C@@H](CNc1ccc(OC(F)(F)F)cc1)NC(=O)[C@@H](CC(=O)N1CCOCC1)CC1CCCCC1 | 0.557 µM | 0.285 µM | 0.013 µM | 220 nM | 0.752 µM·h | 1.23 h | 1.83 h
CC(C)[C@@H](CNc1ccc(OC(F)(F)F)cc1)NC(=O)[C@@H](CC(=O)N1CCOCC1)c1ccc(C(F)(F)F)cc1 | > 100 µM | > 100 µM | 0.043 µM | 946 nM | 4.63 µM·h | 2.26 h | 2 h
CS(=O)(=O)CC[C@@H](CNc1ccc(OC(F)(F)F)cc1)NC(=O)[C@@H](CC(=O)N1CCOCC1)CC1CCCCC1 | 0.26 µM | – | 0.005 µM | – | – | – | –
O=C(NCCNc1ccc(F)cc1)[C@@H](CC(=O)N1CCOCC1)CC1CCCCC1 | > 30 µM | > 30 µM | 1.37 µM | – | – | – | –
CC(C)[C@@H](CNc1ccc(OC(F)(F)F)cc1)NC(=O)[C@@H](CC(=O)N1CCOCC1)c1ccc(F)cc1 | 11.5 µM | 11.5 µM | 0.024 µM | 629 nM | 1.87 µM·h | 0.97 h | 1.67 h
C[C@@H](CNc1ccc(OC(F)(F)F)cc1)NC(=O)[C@@H](CC(=O)N1CCOCC1)CC1CCCC1 | 3.71 µM | > 30 µM | – | 318 nM | 0.806 µM·h | 0.68 h | 1 h
O=C(N[C@@H](CCc1ccccc1)CNc1ccc(OC(F)(F)F)cc1)[C@@H](CC(=O)N1CCOCC1)CC1CCCCC1 | 1.48 µM | 0.636 µM | 0.018 µM | – | – | – | –
